From ChEMBL document CHEMBL1287808, “Synthesis and anti-HCV activity of a new 2'-deoxy-2'-fluoro-2'-C-methyl nucleoside analogue” (Bioorg Med Chem Lett, 2010) come the findings set out here.

Values after ≈ are worked out from the molar mass of the structure shown. Active and inactive are the calls of the source. No cut-off for these calls is given here.

In experiment [1] the test system is Hepatitis C virus. Description: Antiviral activity against Hepatitis C virus infected in Ava5 cell assessed as suppression of HCV replication at 6 ug/ml. Format: functional, organism-based. To be noted: Hepacivirus hominis.
Experiment [2] deals with Hepatitis C virus. Description: Antiviral activity against Hepatitis C virus infected in Ava5 cell assessed as suppression of HCV replication at 0.6 ug/ml. The class given is functional, organism-based. To be noted: Hepacivirus hominis.
For experiment [3], the system named is Hepatitis C virus. Description: Antiviral activity against Hepatitis C virus infected in Ava5 cell assessed as suppression of HCV replication at 0.06 ug/ml. Format: functional, organism-based. To be noted: Hepacivirus hominis.
For experiment [4], the system named is Hepatitis C virus. Description: Antiviral activity against Hepatitis C virus infected in HEK293 cell expressing sip-L protein assessed viral RNA level. The class given is functional, organism-based, Hepacivirus hominis.
The test system of experiment [5] is Hepatitis C virus. Description: Antiviral activity against Hepatitis C virus infected in HEK293 cell expressing sip-L protein. The class given is functional, organism-based, Hepacivirus hominis.

In general, EC50 refers to the midpoint of the concentration-response curve. By IC50 is commonly meant the midpoint of a concentration-inhibition curve. In the case of `C[C@@]1(F)[C@H](O)[C@@H](CO)O[C@H]1n1cc(F)c2c(N)ncnc21`, the result in experiment [1] and in experiment [2] was Active. In addition, the outcome in experiment [3] was inactive. For the same compound, it took 0.8 µg/mL (≈ 2.66 µM) to reach a half-maximal effect in experiment [4] (EC50). Moreover, the concentration for half-maximal inhibition (IC50) in experiment [5] turned out to be 350 µg/mL (≈ 1170 µM).
